From patent US20230330064A1, “TYROSINE, TRYPTOPHAN AND PHENYLALANINE AS mTOR AGONISTS MEDIATING PROTEASOME DYNAMICS, COMPOSITIONS, METHODS AND USES THEREOF IN THERAPY, AND PROGNOSTIC METHODS FOR DRUG-RESISTANCE” (Technion Research & Development Foundation Limited, priority 2020, published 2023)

Legend:
[1] = tested on: human bladder cancer T24 cell line; details: cited from earlier work
[2] = tested on: tumor; details: in vivo; cited from earlier work
[3] = molecular target: L-type amino acid transporter 1 (LAT-1) (Homo sapiens, UniProt Q01650); details: cited from earlier work
[4] = tested on: 26S proteasome; assay: Proteasome subcellular localization in cultured cells (immunofluorescence, western blot of nuclear fractions); type: cell-based; details: for proteasome localization without exogenous starvation: non-stressed cells, complete medium; for starvation-induced proteasome translocation from the nucleus to the cytosol: substance added to amino acid starvation medium, 8 h
Method: (§1) Cells were seeded on glass cover slips for 36 h. Following the indicated treatments, they were fixed with 4% PFA for 15 min, washed with (phosphate-buffered saline) PBS and incubated in PBS containing 10% goat serum for 1h at room temperature, followed by 2 h incubation with the indicated primary antibody. Following extensive wash with PBS, the fixed cells were incubated with the relevant secondary antibody for 1 h, washed and mounted. Images were acquired using Zeiss LSM 700 confocal microscope (Zeiss, Oberkochen, Germany).
The proteasome subunits α6, β1, and PSMD1 were visualized via indirect immunofluorescence, using primary and secondary antibodies listed under Key Resources Table. To observe the proteasome in live cells, we expressed the cDNAs of the β4, Rpn2, Rpn6, and Rpn13 proteasome subunits C-terminally fused with GFP. Photoconversion of proteasome-fused Dendra2 was carried out as previously described (McKinney et al., 2009 Nat Methods. 131-133).
Cells were incubated for 20 min in fractionation buffer [20 mM HEPES pH 7.3, 10 mM KCl, 5 mM ATP, 5 mM MgCl2, and protease inhibitor cocktail (Roche)], followed by the addition of NP-40 (to 0.1%). They were then mixed thoroughly and centrifuged at 1,000×g for 5 min. The supernatant was collected as cytosolic fraction, and the pellet (nuclei) was washed twice with PBS. To dissolve the nuclear pellet, fractionation buffer supplemented with 0.5% sodium deoxycholate was added followed by sonication.
(§2) Cells were washed twice with ice cold PBS and scraped into lysis buffer (50 mM Tris-HCl, pH 7.4, 130 mM NaCl, 0.5% NP-40) supplemented with freshly added protease inhibitor cocktail, 5 mM ATP, 10 mM iodoacetamide, and 5 mM N-ethyl maleimide. Protein concentration was measured by the BCA assay according to the manufacturer's instructions (Pierce, Rockford, IL). 30 μg of cellular protein were resolved via SDS-PAGE, transferred to a nitrocellulose membrane and immunoblotted with the appropriate antibody.

[5] = molecular target: proteasome subunit beta type-5 (PSMB5) (Homo sapiens, UniProt P20618+P28074); details: cited from earlier work
[6] = Amino acids level measurement (LC-MS); type: cell-based; details: Torin1-treated cells
Method: Metabolic analysis was carried out as previously described (MacKay et al., 2015). Briefly, cells were rapidly washed 3 times with ice-cold PBS and extracted with an aqueous solution of 50% Methanol, and 30% Acetonitrile. Samples were centrifuged at 16,000×g for 10 min at 4° C., and the supernatants were analyzed using HPLC-MS (Q-Exactive Orbitrap Mass Spectrometer (Thermo Scientific) coupled to Thermo Scientific UltiMate 3000 HPLC system). The HPLC setup consisted of a ZIC-pHILIC column (SeQuant, 150×2.1 mm, 5 μm, Merck) with a ZIC-pHILIC guard column (SeQuant, 20×2.1 mm). The aqueous mobile phase solvent was 20 mM ammonium carbonate adjusted to pH 9.4 with 0.1% ammonium hydroxide. The organic mobile phase was acetonitrile. […] All metabolites were detected across a mass range of 75-1,000 m/z using the Q-Exactive mass spectrometer at a resolution of 35,000 (at 200 m/z) with electrospray ionization and polarity switching mode. […] The peak areas of different Amino Acids were determined using Thermo TraceFinder software through which metabolites were identified by the exact mass of the singly charged ion and by known retention time on the HPLC column. Commercially available standard compounds had been analyzed before to determine ion masses and retention times on the ZIC-pHILIC column. Protein quantitation based on the Lowry method was performed for normalization.

[7] = tested on: cellular proteins; assay: Degradation of radiolabeled cellular proteins; type: cell-based; details: starved cells
Method: Cells were labeled with […] methionine and cysteine (20 μCi/ml) for 16 h. This was followed extensive washing and further incubation in a medium containing 2 mM of the two unlabeled amino acids for 8 h. Degradation rates were assessed by determining the release of labeled amino acids to the incubation medium relative to the radioactivity remained in the cellular proteins (using Trichloroacetic acid precipitation to separate between the two) (Gropper et al., 1991, JPEN J Parenter Enteral Nutr 15, 48-53.).

[8] = molecular target: T1, exportin-1 (Homo sapiens, UniProt O14980); assay: Nuclear export of exportin-1 substrates (p65, APC, NES-GFP) in HeLa cells; type: cell-based; details: 8 h
T1 construct: endogenous in cells; host or cells: HeLa
Method: FIG. 4G. HeLa cells were incubated under the indicated conditions, and the β4 subunit of the proteasome as well as the p65 subunit of NF-κB—which is a CRM1 substrate—were visualized.
FIG. 4H. HeLa cells were incubated under the indicated conditions, and the β4 subunit of the proteasome as well as the CRM1 substrate APC (adenomatous polyposis coli) were visualized.
FIG. 4I. HeLa cells infected with GFP fused to a nuclear export signal (NES) were incubated for 8h under the indicated conditions. The GFP was visualized.
as §1

[9] = tested on: ubiquitin adducts; assay: Western blot for ubiquitin adducts; type: cell-based; details: starved cells
Method: FIG. 5E. Western blot for ubiquitin adducts of extracts of cells treated as indicated. Intensities relative to control are presented.
as §2

[10] = tested on: cellular proteins; assay: Proteomic analysis of cellular protein levels; type: cell-based, human; details: amino acid starvation
Method: 2-3 mg of cell extract protein in 8 M Urea and 100 mM ammonium bicarbonate, were incubated with DTT (2.8 mM; 30 min at 60° C.), modified with iodoacetamide (8.8 mM; 30 min at room temperature in the dark), and digested (overnight at 37° C.) with modified trypsin (Promega; 1:50 enzyme-to-substrate ratio) in 2 M Urea and 25 mM ammonium bicarbonate. Additional second trypsinization was carried out for 4 hours. The tryptic peptides were desalted using Sep-Pak C18 (Waters) and dried. 10 μg of protein were used for proteome analysis as described under Mass spectrometry.
Tryptic peptides were analyzed by LC-MS/MS using a Q Exactive plus mass spectrometer (Thermo Fisher Scientific) fitted with a capillary HPLC (easy nLC 1000, Thermo). […]
The mass spectrometry raw data were analyzed by the MaxQuant software (version 1.4.1.2, http://www.maxquant.org) for peak picking and quantification. […] The MaxQuant software was used for label-free semi-quantitative analysis [based on extracted ion currents (XICs) of peptides], enabling quantification from each LC/MS run for each peptide identified in any of the experiments. In samples that were SILAC-labeled, quantification was also carried out using the MaxQuant software. […]

[11] = tested on: proteasome; assay: Live imaging of proteasome activity probe Me4BodipyFL-Ahx3Leu3VS in cells; type: cell-based; details: added to the starvation medium
Method: Live cell proteasome activity was followed as previously described (Berkers et al., 2007, Mol Pharm; 4(5):739-48.). In brief, Me4BodipyFL-Ahx3Leu3VS was added to the medium to a final concentration of 1 μM. Following incubation for 15 min, the cells were visualized by a Zeiss LSM 700 confocal microscope. In vitro proteasome activity assay was carried out as previously described (Braten et al., 2016). In brief, cellular fractions were incubated at 37° C. for 30 min with 5 μM Suc-LLVY-AMC (Succinyl-Lu-Leu-Val-Tyr-amido-4-methylcoumarin) in a reaction buffer (40 mM Tris-HCl pH 7.2, 2 mM DTT, 5 mM MgCl2, 10 mM creatine phosphate, 0.1 mg/ml creatine phosphate kinase, 5 mM ATP). Reactions were stopped by adding 1% SDS, and fluorescence was measured at 360 nm/460 nm (ex/em).

[12] = tested on: tumors; assay: Tumor model in mice, YWF versus various concentrations of F; type: in vivo; details: various concentrations up to 45 mM
Method: The anti-tumorigenic effect of the indicated treatments was examined in vivo, using a tumor model in mice.
The inventors next aimed to assess the anti-tumorigenic effect of the above treatments in vivo, using a tumor model in mice. Following tumor formation, each group was treated with a different treatment, and the size of tumors was eventually compared relative to the control group (QLR).

[13] = tested on: cancer cells; assay: Cell viability of stressed (starved) and non-stressed cancer cells, YWF versus 45 mM F or W
Method: Since tumor cells are inherently stressed—due to high metabolic demands and poor perfusion of nutrients and oxygen, starved cells in culture were used in order to simulate the effect of the different treatments. Similarly, to simulation of the effect of each treatment on “normal” tissues in vivo—which are not stressed—the same amino acid(s) were added to non-starved cells in culture.

L-type amino acid transporter 1 (LAT-1), sequence (Q01650 whole entry): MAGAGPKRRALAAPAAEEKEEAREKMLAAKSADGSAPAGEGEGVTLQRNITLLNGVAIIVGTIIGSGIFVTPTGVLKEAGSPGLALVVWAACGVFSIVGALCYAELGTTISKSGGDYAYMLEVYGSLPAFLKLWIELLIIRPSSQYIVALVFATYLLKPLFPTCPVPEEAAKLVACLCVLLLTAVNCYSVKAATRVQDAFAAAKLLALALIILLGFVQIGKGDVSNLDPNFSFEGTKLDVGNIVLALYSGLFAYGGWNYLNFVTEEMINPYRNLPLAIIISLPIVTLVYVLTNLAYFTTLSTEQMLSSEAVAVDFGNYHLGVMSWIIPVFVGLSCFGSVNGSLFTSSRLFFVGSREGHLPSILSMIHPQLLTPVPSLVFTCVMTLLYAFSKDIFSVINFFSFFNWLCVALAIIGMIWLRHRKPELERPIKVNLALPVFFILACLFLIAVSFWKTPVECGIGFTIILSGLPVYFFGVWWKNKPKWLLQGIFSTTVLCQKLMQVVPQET
L-type amino acid transporter 1 (LAT-1), sequence (P08195 102-630 partner): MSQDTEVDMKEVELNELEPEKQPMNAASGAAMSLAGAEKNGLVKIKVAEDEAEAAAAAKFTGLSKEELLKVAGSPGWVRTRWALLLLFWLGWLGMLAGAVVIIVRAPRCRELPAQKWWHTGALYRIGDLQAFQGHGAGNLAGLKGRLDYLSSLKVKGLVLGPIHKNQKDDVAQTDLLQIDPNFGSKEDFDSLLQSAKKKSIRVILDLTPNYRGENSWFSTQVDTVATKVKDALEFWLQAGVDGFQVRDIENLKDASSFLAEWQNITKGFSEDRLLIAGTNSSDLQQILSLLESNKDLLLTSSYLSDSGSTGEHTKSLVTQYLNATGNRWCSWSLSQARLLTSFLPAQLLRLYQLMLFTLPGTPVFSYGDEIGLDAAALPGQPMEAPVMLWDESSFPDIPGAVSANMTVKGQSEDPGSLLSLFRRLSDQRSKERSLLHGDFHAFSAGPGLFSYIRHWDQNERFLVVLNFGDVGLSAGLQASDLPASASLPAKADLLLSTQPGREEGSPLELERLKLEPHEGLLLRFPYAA
T1 sequence (O14980 whole entry): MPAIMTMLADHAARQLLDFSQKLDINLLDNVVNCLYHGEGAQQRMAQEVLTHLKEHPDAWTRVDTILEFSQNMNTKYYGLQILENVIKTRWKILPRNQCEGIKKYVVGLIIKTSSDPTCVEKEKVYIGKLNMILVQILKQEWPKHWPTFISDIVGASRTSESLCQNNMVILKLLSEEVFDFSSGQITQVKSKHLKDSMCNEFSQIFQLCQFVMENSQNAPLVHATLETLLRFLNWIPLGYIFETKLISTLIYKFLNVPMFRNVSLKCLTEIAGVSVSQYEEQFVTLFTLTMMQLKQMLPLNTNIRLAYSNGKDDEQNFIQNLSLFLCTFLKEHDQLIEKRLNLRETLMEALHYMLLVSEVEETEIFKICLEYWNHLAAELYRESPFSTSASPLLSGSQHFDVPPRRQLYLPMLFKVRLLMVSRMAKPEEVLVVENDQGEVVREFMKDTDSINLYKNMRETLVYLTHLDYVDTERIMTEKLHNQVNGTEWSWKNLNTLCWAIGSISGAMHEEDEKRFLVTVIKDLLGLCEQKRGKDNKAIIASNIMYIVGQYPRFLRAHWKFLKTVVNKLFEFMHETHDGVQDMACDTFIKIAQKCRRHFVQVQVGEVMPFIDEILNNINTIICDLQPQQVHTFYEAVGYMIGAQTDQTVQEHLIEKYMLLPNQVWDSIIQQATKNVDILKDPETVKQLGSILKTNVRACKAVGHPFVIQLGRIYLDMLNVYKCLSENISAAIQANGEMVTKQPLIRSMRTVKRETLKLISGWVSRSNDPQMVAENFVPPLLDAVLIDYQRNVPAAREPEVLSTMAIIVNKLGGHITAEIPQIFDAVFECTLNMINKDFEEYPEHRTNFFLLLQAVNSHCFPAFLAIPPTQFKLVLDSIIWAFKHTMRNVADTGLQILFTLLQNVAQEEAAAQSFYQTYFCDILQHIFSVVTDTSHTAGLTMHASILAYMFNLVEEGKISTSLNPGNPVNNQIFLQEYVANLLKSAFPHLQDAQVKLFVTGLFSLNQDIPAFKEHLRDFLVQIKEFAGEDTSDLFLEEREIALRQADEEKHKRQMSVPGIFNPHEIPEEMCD

## N[C@@H](Cc1cccc(Oc2ccc3ccccc3c2)c1)C(=O)O [3-(2-naphthyloxy)-L-phenylalanine]
[1]
  T24 cell line proliferation: inhibition
[2]
  tumor growth: inhibition of tumor growth
[3]
  intracellular 14C-Leucine: reduction

## Cn1cnc(N)c2ncnc1-2 [3-MA, 3-methyl adenine]
[4]
  proteasome localization without exogenous starvation: induced the same effect

## CC(C)C[C@H](NC(=O)CNC(=O)c1cc(Cl)ccc1Cl)B(O)O [Ixazomib, N^2-(2,5-Dichlorobenzoyl)-N-[(1R)-1-(dihydroxyboryl)-3-methylbutyl]glycinamide]
[5]
  mode of PSMB5 inhibition: selectively and reversibly inhibits

## CCC(=C/[C@H](C)C/C=C/C(C)=C/[C@@H](C)C(=O)[C@@H](C)[C@H](O)[C@@H](C)C/C(C)=C/C(=O)O)/C=C/[C@@H]1OC(=O)C=C[C@@H]1C [LMB, Leptomycin B]
[6]
  gain in amino acids produced by Torin1: significantly inhibits the gain in amino acids
[7]
  starvation-induced stimulation of protein breakdown: inhibition of starvation-induced stimulation of protein breakdown
[8]
  cellular distribution of GFP fused to nuclear export signal (NES): leads to nuclear accumulation
[4]; NUP93 silenced, starvation
  proteasome distribution in cells lacking NUP93: neither YWF nor LMB had a significant effect on its distribution
[4]
  proteasome localization without exogenous starvation: nuclear accumulation of the proteasome
  starvation-induced proteasome translocation from the nucleus to the cytosol: inhibition of the translocation
[9]
  degradation and depletion of ubiquitin adducts: inhibits degradation and depletion of ubiquitin adducts
[10]
  starvation-induced reduction in the level of ~900 proteins: prevented
[11]
  migration of proteasomal activity from the nucleus: inhibits the migration of proteasomal activity from the nucleus

## N[C@@H](Cc1ccccc1)C(=O)O [Phe, Phenylalanine]
[12]
  benefit on tumor growth relative to control group (QLR): did not result in any benefit
[4]
  starvation-induced proteasome translocation from the nucleus to the cytosol: significant effect
[13]
  elimination of stressed cancerous cells in culture: clearly inferior to the mixture of YWF

## CCC(=O)N1CCN(c2ccc(-n3c(=O)ccc4cnc5ccc(-c6cnc7ccccc7c6)cc5c43)cc2C(F)(F)F)CC1 [Torin1]
[4]
  proteasome localization without exogenous starvation: induces nuclear export of both 20S and 19S sub-complexes

## N[C@@H](Cc1c[nH]c2ccccc12)C(=O)O [Trp, Tryptophan]
[4]
  starvation-induced proteasome translocation from the nucleus to the cytosol: significant effect

## N[C@@H](Cc1ccc(O)cc1)C(=O)O [Tyr, 4-hydroxyphenylalanine]
[4]
  starvation-induced proteasome translocation from the nucleus to the cytosol: significant effect

## CC(C)C[C@H](NC(=O)[C@H](CCc1ccccc1)NC(=O)CN1CCOCC1)C(=O)N[C@@H](Cc1ccccc1)C(=O)N[C@@H](CC(C)C)C(=O)[C@@]1(C)CO1 [carfilzomib, (2S)-4-Methyl-N-[(2S)-1-[[(2S)-4-methyl-1-[(2R)-2-methyloxiran-2-yl]-1-oxopentan-2-yl]amino]-1-oxo-3-phenylpropan-2-yl]-2-[[(2S)-2-[(2-morpholin-4-ylacetyl)amino]-4-phenylbutanoyl]amino]pentanamide]
[5]
  mode of PSMB5 inhibition: irreversibly

## C[C@@H]1C[C@@H]([C@H](O)CC2CC(=O)NC(=O)C2)C(=O)[C@@H](C)C1 [cycloheximide]
[4]; 8 h starvation, then replenishment in presence of the substance
  reappearance of the proteasome in the nucleus after amino acid replenishment: does not prevent the reappearance of the proteasome in the nucleus

## Ivermectin
[4]
  proteasome localization without exogenous starvation: cytosolic accumulation

## Tunicamycin
[4]
  proteasome localization without exogenous starvation: inducing proteasome nuclear export
